ChEMBL document CHEMBL2448688, “Selection and optimization of hits from a high-throughput phenotypic screen against Trypanosoma cruzi. Exported from HEOS 25-Oct-2013. See also related datasets CHEMBL3137440 and CHEMBL3137386”
pIC50: −log10 of the molar value. Converted amounts (≈) assume the structure as drawn. “And” between values parts separate entries of the source, which are not always exact repeats. Equal values may be shown once.

Tests used:
Trypanosoma cruzi [1] = experiment: (§1) DNDI: Chagas in Vitro; format: functional, Tulahuen C4 (LacZ)
[2] = (§2) DNDI: Cytotoxicity in vitro, against rat skeletal myoblast (L-6) cells; conditions: L-6 cells (skeletal myoblasts), IC50
L6 = experiment: as §2; conditions: L-6 cells (skeletal myoblasts)
[3] = system: Trypanosoma brucei rhodesiense; experiment: DNDI: HAT in Vitro; format: functional, organism-based, ATCC 30027; conditions: Trypanosoma brucei, ATCC 30027
Trypanosoma cruzi [4] = experiment: as §1; format: functional, organism-based, Tulahuen C4 (LacZ)
Cytochrome P450 3A4 = Cytochrome P450 3A4 (Homo sapiens, UniProt P08684); experiment: DNDI: Human CYP3A4 inhibition determined using 6b-hydroxylation of testosterone
[5] = DNDI: Lipophilicity (gLogD) at pH 3; conditions: buffer, pH 3, logD
[6] = DNDI: Lipophilicity (gLogD) at pH 7.4; conditions: buffer, pH 7.4, logD
[7] = DNDI: Solubility in 0.01M HCl at pH 2 determined by nephelometry; conditions: 0.01M HCl, pH 2, Kinetic
[8] = DNDI: Solubility in phosphate buffer at pH 6.5 determined by nephelometry; conditions: phosphate buffer, pH 6.5, Kinetic
in vitro [9] = conditions: human, microsomes
in vitro [10] = conditions: human, microsomes, EH
in vitro [11] = conditions: human, microsomes, t (1 / 2)
Trypanosoma cruzi [12] = experiment: DNDI: Chagas in vivo at 20 mg/kg, 20 days 2x; format: functional, Tulahuen Swiss po
[13] = Trypanosoma cruzi, Tulahuen C4 (LacZ)

Cytochrome P450 3A4, sequence (P08684 whole entry): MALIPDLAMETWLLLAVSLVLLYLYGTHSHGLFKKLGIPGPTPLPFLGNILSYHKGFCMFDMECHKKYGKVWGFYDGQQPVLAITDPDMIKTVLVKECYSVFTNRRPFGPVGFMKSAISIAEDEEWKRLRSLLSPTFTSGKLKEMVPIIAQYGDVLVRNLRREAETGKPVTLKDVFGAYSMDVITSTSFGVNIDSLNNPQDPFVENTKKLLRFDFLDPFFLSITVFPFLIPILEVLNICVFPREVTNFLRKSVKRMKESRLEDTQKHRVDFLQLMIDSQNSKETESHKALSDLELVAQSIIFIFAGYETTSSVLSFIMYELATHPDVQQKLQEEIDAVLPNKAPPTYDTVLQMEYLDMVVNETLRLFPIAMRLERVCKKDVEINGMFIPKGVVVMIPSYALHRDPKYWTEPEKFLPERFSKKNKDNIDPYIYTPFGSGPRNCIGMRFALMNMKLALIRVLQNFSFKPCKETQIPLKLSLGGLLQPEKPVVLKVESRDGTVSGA

Row | IC90 (Trypanosoma cruzi [1]) | pIC50 [3] | pIC50 (Trypanosoma cruzi [4]) | pIC50 (Trypanosoma cruzi [4]; [13]) | pIC50 (Cytochrome P450 3A4) | chromatographic logD [5] | chromatographic logD [6] | solubility kinetic [7] [µg/mL] | solubility kinetic [8] [µg/mL] | microsomal CLint (in vitro [9]) [µL/min/mg] | hepatic extraction ratio (in vitro [10]) | half-life (in vitro [11]) [min] | IC90 (Trypanosoma cruzi [1]; [13]) [nM] | SMILES | pIC50 [2] | pIC50 (L6) | PCR cure rate (Trypanosoma cruzi [12]) [%]
1 | > 10000 nM | 5.27 | – | – | – | – | – | – | – | – | – | – | – | CCN(c1ccccc1)S(=O)(=O)c1ccc(Cl)c(NC(=O)CN(C)C2CCN(C)CC2)c1 | 4.29 | 4.27 | –
2 | 14.6 nM and 6 nM | – | 9.00 | 8.70 | 6.21 | 1.89 | 3.18 | > 74.9 | 8.62 (≈ 23 µM) | 218 | 0.916 | 7.9 | – | CS(=O)(=O)N(Cc1cccnc1)c1ccc(-c2ccc(F)cc2)cc1F | – | – | –
3 | – | < 5.00 | – | 6.73 | 5.48 | – | – | 64.3 (≈ 187 µM) | 48.2 (≈ 140 µM) | 16.5 | – | 105 | > 1000 | O=C(NCCc1cnc[nH]1)c1ccc2cc(Br)ccc2c1 | 4.22 | – | –
4 | – | – | – | 7.17 | – | 2.3 | 3.5 | > 100 | – | 18 | – | 97 | 204 | CO/N=C(\C)c1ccc(-n2ccnc2)c(NC(=O)c2sc(-c3ccccc3)nc2C)c1 | < 4.00 | – | –
5 | – | < 5.00 | – | 7.89 | 5.00 | 2.4 | 3 | > 100 | – | 79 | 0.75 | 22 | 87 | CN(C)S(=O)(=O)c1ccc(-n2ccnc2)c(NC(=O)c2cnc(-c3ccccc3)s2)c1 | < 4.00 | – | –
6 | – | < 5.00 | – | 7.64 | > 6.60 | 3.2 | 3.6 | > 100 | – | 346 | 0.93 | 5 | 58.5 | CCS(=O)(=O)N(Cc1cccnc1)c1cccc(-c2nc3ccccc3s2)c1 | < 4.00 | – | –
7 | – | – | – | 7.70 | – | 3.04 | 4.49 | 66.9 (≈ 166 µM) | 6.65 (≈ 16.5 µM) | 1320 | – | 1.3 | 62.5 | O=C(C1CC1)N(Cc1cccnc1)c1cc(F)cc(-c2nc3ccccc3s2)c1 | 4.11 | – | –
8 | 23.5 nM and 8.03 nM | < 5.00 | 8.19 and 9.10 | – | 4.70 | 2.7 | 3.2 | 50 (≈ 105 µM) | 1.6 (≈ 3.36 µM) | 166 | 0.9 | 10 | – | CCN(CC)S(=O)(=O)c1ccc(-n2ccnc2)c(NC(=O)c2cnc(-c3ccccc3)nc2)c1 | < 4.00 | – | –
9 | – | < 5.00 | – | – | 4.80 | 1.3 | 2.1 | > 100 | – | < 7 | < 0.23 | > 250 | – | O=C(NCCc1cnc[nH]1)c1cnc(-c2ccccc2)cn1 | – | – | –
10 | – | – | – | – | – | – | – | – | – | – | – | – | – | CO/N=C(\C)c1ccc(-n2ccnc2)c(NC(=O)c2cc(-c3ccccc3)cs2)c1 | < 4.00 | – | –
11 | – | – | – | 8.70 | – | 1.8 | 3 | > 100 | – | 109 | – | 16 | 15 | Cc1ccc(-n2ccnc2)c(NC(=O)c2cnc(-c3ccccc3)s2)c1 | 4.06 | – | –
12 | – | – | – | 7.87 | 5.98 | 1.89 | 3.19 | > 82.1 | 13 (≈ 31.8 µM) | 559 | 0.965 | 3.1 | 355 | CCS(=O)(=O)N(Cc1cccnc1)c1cncc(-c2nc3ccccc3s2)c1 | < 4.00 | – | –
13 | – | < 5.00 | – | 7.80 | > 6.60 | 3.3 | 4.5 | > 100 | 12.5 | 14 | 0.36 | 120 | 59 | CCOC(COc1ccc2cc(Br)ccc2c1)Cn1ccnc1.O=CO (stereo unspecified) | 4.35 | – | –
14 | – | – | 9.66 and 9.70 and 9.72 | > 9.85 | – | 2.8 | 3.9 | > 100 | < 1.6 | 157 | – | 11 | – | CC(C)Cc1ccc(-n2ccnc2)c(NC(=O)c2cnc(-c3ccccc3)s2)c1 | – | – | –
15 | – | – | – | – | – | – | – | – | – | – | – | – | – | Cl.NCC(=O)N(Cc1cccnc1)c1ccc(-c2nc3ccccc3s2)cc1 | – | – | 20
16 | – | – | – | 6.46 | – | – | – | – | – | – | – | – | 632 | CCN(Cc1cccnc1)c1ccc(-c2nc3ccccc3s2)cc1 | 4.26 | – | –
17 | – | < 5.00 | – | 6.77 | 6.10 | 1.56 | 3.67 | 66.3 (≈ 191 µM) | 3.52 (≈ 10.2 µM) | 414 | 0.953 | 4.2 | 354 | CCN(Cc1cccnc1)c1cncc(-c2nc3ccccc3s2)c1 | 4.50 | – | –
18 | 51 nM and 110 nM | – | 7.32 | 7.29 | 6.24 | 1.98 | 4.67 | > 70.5 | 3.1 (≈ 8.8 µM) | 138 | 0.874 | 12.4 | – | CCN(Cc1cnc[nH]1)c1cc(F)cc(-c2nc3ccccc3s2)c1 | – | – | –

Row | IC90 (Trypanosoma cruzi [1]) | pIC50 [3] | pIC50 (Trypanosoma cruzi [4]) | pIC50 (Trypanosoma cruzi [4]; [13]) | pIC50 (Cytochrome P450 3A4) | chromatographic logD [5] | chromatographic logD [6] | solubility kinetic [7] [µg/mL] | solubility kinetic [8] [µg/mL] | microsomal CLint (in vitro [9]) [µL/min/mg] | hepatic extraction ratio (in vitro [10]) | half-life (in vitro [11]) [min] | IC90 (Trypanosoma cruzi [1]; [13]) [nM] | SMILES | pIC50 [2] | pIC50 (L6) | PCR cure rate (Trypanosoma cruzi [12]) [%]
19 | – | 6.04 | – | < 6.00 | 4.79 | -0.12 | 1.56 | 101 | 94.4 | 89 | 0.815 | 19.5 | > 1000 | CCN(c1ccccc1)S(=O)(=O)c1ccc(Cl)c(NC(=O)CNC2CCCN(C)C2)c1.O=CO (stereo unspecified) | 4.34 | – | –
20 | – | – | – | < 6.00 | – | – | – | – | – | – | – | – | > 1000 | CO/N=C(\C)c1ccc(-n2ccnc2)c(NC(=O)c2ccc(-c3ccccn3)cc2)c1 | < 4.00 | – | –
21 | 2.77 nM | < 5.00 | 9.05 | 9.21 | – | – | – | – | – | – | – | – | 3 | CO/N=C(\C)c1ccc(-n2ccnc2)c(NC(=O)c2cnc(-c3ccccc3)s2)c1 | – | – | 0
22 | – | – | – | 7.39 | – | – | – | – | – | – | – | – | 91 | CS(=O)(=O)N(Cc1cccnc1)c1ccc(-c2nc3ccccc3s2)cc1 | < 4.00 | – | –
23 | – | < 5.00 | – | – | 6.00 | 4.1 | 4.9 | > 100 | < 1.6 | 159 | 0.86 | 11 | – | CCN(Cc1cccnc1)c1cccc(-c2nc3ccccc3s2)c1 | 4.38 | – | –
24 | – | – | – | 7.27 | – | – | – | – | – | – | – | – | 184 | CC(=O)N(Cc1cccnc1)c1ccc(-c2ccc(F)cc2)cc1F | – | – | –
25 | – | – | – | 7.77 | 6.00 | 3.49 | > 4.5 | 59.5 (≈ 183 µM) | < 0.32 | 80.5 | 0.799 | 21.5 | 82.5 | CCN(Cc1cccnc1)c1ccc(-c2ccc(F)cc2)cc1F | 4.25 | – | –
26 | > 1000 nM | – | 6.27 | 6.31 | – | – | – | – | – | – | – | – | 941 | CC(=O)N(Cc1cnc[nH]1)c1cc(F)cc(-c2nc3ccccc3s2)c1 | < 4.00 | – | –
27 | 569 nM and > 1000 nM | – | 7.19 and 7.13 | 7.15 | – | – | – | – | – | – | – | – | 615 | CS(=O)(=O)N(Cc1cnc[nH]1)c1cc(F)cc(-c2nc3ccccc3s2)c1 | 4.17 | 4.19 | –
28 | 64 nM and 625 nM | – | – | 7.77 | – | – | – | – | – | – | – | – | – | NCC(=O)N(Cc1cccnc1)c1ccc(-c2nc3ccccc3s2)cc1 | – | – | –
29 | – | – | 8.49 and 8.42 | 8.31 | – | – | – | – | – | – | – | – | 10 | O=C(Nc1ccccc1-n1ccnc1)c1cnc(-c2ccccc2)s1 | – | – | –
30 | – | – | – | 7.89 | – | – | – | – | – | – | – | – | 34 | O=C(C1CC1)N(Cc1cccnc1)c1cncc(-c2nc3ccccc3s2)c1 | – | – | –
31 | – | – | – | 6.51 | – | – | – | – | – | – | – | – | – | O=C(NCCc1c[nH]cn1)c1ccc(-c2ccccc2)cc1 | < 4.00 | – | –
32 | – | – | – | – | – | – | – | – | – | – | – | – | – | CC(=O)N(Cc1c[nH]cn1)c1ccc(-c2ccc(F)cc2)cc1F | 4.16 | – | –
33 | – | – | – | 7.33 | 6.11 | 3.75 | > 4.5 | 57.2 (≈ 157 µM) | < 0.36 | 179 | 0.898 | 9.7 | 98 | CCN(Cc1cccnc1)c1cc(F)cc(-c2nc3ccccc3s2)c1 | 4.24 | – | –
34 | – | – | – | 8.57 | 5.85 | 2.4 | 3.2 | > 100 | – | 102 | 0.8 | 17 | 9.5 | CO/N=C(\C)c1ccc(-n2ccnc2)c(NC(=O)c2ccc(-c3cccs3)nc2)c1 | < 4.00 | – | –
35 | – | < 5.00 | – | 7.54 | – | 3.4 | 4 | > 100 | – | 380 | – | 5 | > 100 | O=C(C1CC1)N(Cc1cccnc1)c1cccc(-c2nc3ccccc3s2)c1 | 4.22 | – | –
36 | – | – | – | 7.22 | – | – | – | – | – | – | – | – | > 100 | CS(=O)(=O)c1ccc(-n2ccnc2)c(NC(=O)c2cnc(-c3ccccc3)s2)c1 | < 4.00 | – | –
